Reference: article PMC12381781, “Structural and functional insights into the selective inhibition of mutant tau aggregation by purpurin and oleocanthal in frontotemporal dementia” (Protein Science : A Publication of the Protein Society, 2025)
pKd: −log10 of the molar value. Like-named read-outs stand apart in the source and are kept apart here.

What was measured:
[1] = target: R2R3 (N279K) tau peptide (Homo sapiens, UniProt P10636, N596K); test: SPR titration cycle kinetics, immobilized R2R3 (N279K) peptide; type: binding
Chain of R2R3 (N279K) tau peptide (P10636 592-653 N596K): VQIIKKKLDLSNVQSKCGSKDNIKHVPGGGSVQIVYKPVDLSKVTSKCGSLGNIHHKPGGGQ
Description: SPR experiments were conducted using the Sierra® SPR‐24 Pro system (Bruker Daltonics, Bremen, Germany), featuring a gold‐coated microfluidic array (24 detection spots, 3 × 8 format). Data acquisition and kinetic analysis were performed using SPR Analyzer 4 software.
All experiments were conducted at 25°C using PBS (pH 7.4) supplemented with 0.05% Tween‐20 and 5% DMSO as the running buffer to ensure assay reproducibility. Assay components, including 96‐well microtiter plates (Part # 1862984; Burker) and Microplate and Reservoir Sealer (Part #1862985; Burker), were used for sample handling and were compatible with the Sierra SPR®‐24 Pro system (Bruker Daltonics, Billerica, MA, USA).
WT and mutant (P301L, V287I, and N279K) tau peptides were dissolved in 10 mM sodium acetate buffer (pH 5.0; Burker) and immobilized onto High‐Capacity Amine Sensor Surfaces (Part #1862614; Bruker) using the Amine Coupling Kit (Part #1862634; Bruker). The sensor surface was preconditioned with a Surface Elution Buffer (Part #1862656; Bruker Daltonics) and 0.1M HCl to remove contaminants and improve binding specificity.
The surface was activated using 400 mM 1‐ethyl‐3‐(3‐dimethylaminopropyl) carbodiimide (Burker) and 50 mM N‐hydroxysuccinimide (Burker), enabling covalent attachment of tau peptides. Unreacted binding sites were blocked with 1M ethanolamine‐HCl (pH 8.5; Burker) to minimize nonspecific interactions. For each experiment, specific sensor spots (A/B/C) on channels 1–8 were designated for tau‐analyte interactions, with corresponding reference spots on the same channel for baseline correction. DMSO calibration solutions (4.6%, 4.8%, 5%, 5.2%, and 5.4%) were prepared for double referencing to compensate for DMSO solvent effects.
PUR and OLC were prepared in PBS (pH 7.4) supplemented with 0.05% Tween‐20 and 5% DMSO. Compound interactions with tau peptides were pre‐screened using a concentration range of 1–100 μM, and subsequent binding kinetics were evaluated at optimized concentrations. For kinetic studies, PUR was tested at […], while OLC was tested at 25–100 μM using two‐fold serial dilutions. Each analyte was sequentially injected, and association and dissociation phases were monitored to determine kinetic parameters.
SPR binding kinetics were assessed using the titration cycle kinetics (TCK) assay, which included consecutive association phases followed by a single dissociation phase. Pre‐assay simulations using the Kinetic Simulator feature of SPR Analyzer 4 software were used to optimize analyte concentration ranges and association/dissociation times. A reference blank injection was included for double referencing, and a single dissociation curve was recorded for the highest analyte concentration.
Sensorgrams were analyzed using the Kinetic Titration model, which was integrated into the global kinetic fitting model of the SPR Analyzer 4 software. This approach allowed for baseline correction and improved the reliability of kinetic parameters, including the Kon, Koff, and KD.
TCK‐derived kinetic parameters were compared across multiple runs and confirmed using Multi Injection Cycle Kinetics to validate reproducibility and accuracy.

[2] = target: R2R3 (P301L) tau peptide (Homo sapiens, UniProt P10636, P618L); test: Atomic force microscopy of R2R3 (P301L) aggregates; type: biochemical; settings: compound 10 μM, 48 h
Chain of R2R3 (P301L) tau peptide (P10636 592-653 P618L): as the sequence (P10636 592-653 N596K) above, with K5N, P27L counted along it
Description: Aggregates collected after 48 h of aggregation were processed for AFM analysis as described previously (Annadurai, Malina, Malohlava, et al., [2022]).

[3] = tested on: Tau RD P301S FRET Biosensor cells; test: Biosensor cell seeding assay, post-transduction treatment; type: cell-based; settings: for concentrations at which seeding was significantly reduced, post-transduction treatment: P301L fibrils transduced 24 h, then compound for 24 h; for seeding (CFP/YFP inclusions) after post-transduction treatment: WT fibrils transduced 24 h, then compound 0 to 10 μM for 24 h
Description: To further evaluate whether PUR and OLC can suppress pathological tau propagation, we performed post‐transduction treatment assays in Tau RD P301S FRET Biosensor cells. WT or P301L tau fibrils were first transduced into cells for 24 h, followed by treatment with PUR or OLC for an additional 24 h. Prior MTS assays confirmed that these concentrations were non‐toxic to biosensor cells (Figure S16).
Tau peptides were aggregated with or without PUR or OLC in a 7.4 pH aggregation buffer without ThT. After 48 h, the contents of each well were pooled to a final total volume of 120 μL. The concentration of the pooled Aggregation Reaction Products was measured using the Pierce™ BCA Protein Assay Kit (Thermo Fisher Scientific Inc., Cat. # 23225). The reaction products were standardized for cell transduction to a final concentration of 100 nM for both control and drug‐treated samples. The pooled aggregation mixture was sonicated using a Branson Ultrasonic™ Sonifier Cup Horns (Marshall Scientific, Hampton, NH, USA) at 30% amplitude (15 s ON and 15 s OFF for 1 min) to fragment larger aggregates into smaller ones, facilitating consistent transduction.
Tau RD P301S FRET Biosensor cells were plated at 5 × 10^3 cells per well in PhenoPlate 384‐well, black, optically clear flat‐bottom plates (Revvity; Part # 6057302) pre‐coated with 50 μg/mL Poly‐ᴅ‐Lysine (Sigma‐Aldrich, Cat. # P6407). After plating, cells were incubated for 30 min at room temperature to promote better cell spreading before returning the plates to the incubator.
The next day, cells were transduced with 100 nM of aggregation mixture, which were either: (i) prepared in the absence (control) or presence of 10 μM PUR or OLC for co‐aggregation studies (Figure 5), or (ii) prepared exclusively in the absence of compounds for post‐transduction treatment studies (Figure 6). The aggregation mixtures were premixed with 0.2 μL per well TurboFect™ Transfection Reagent (Thermo Fisher Scientific Inc., Cat. # R0533) in 10 μL Opti‐MEM™ (Thermo Fisher Scientific Inc., Cat. #11058021) and added to cells.
For co‐aggregation studies (Figure 5), cells were cultured for 48 h after transduction before processing for imaging. […]
Cells were imaged on a Cell Voyager 7000S high‐content imaging system (Yokogawa, Tokyo, Japan) with a 20× objective. CFP/YFP inclusions of seeded tau were detected using a 488 nm laser line (Ex = 460–490 nm, Em = 500–550 nm), and Hoechst‐stained nuclei were detected using a 405 nm laser line (Ex = 360–400 nm, Em = 410–480 nm). […] Image analysis was performed using Signals Image Artist (Revvity) to quantify the number of cells (Hoechst‐stained nuclei) and intracellular CFP/YFP inclusions. […]

| Structure (SMILES) | Kon ([1]; SPR, R2R3 N279K) | koff ([1]; SPR, R2R3 N279K) | pKd ([1]; SPR, R2R3 N279K peptide immobilized, 25°C, PBS pH 7.4, read-out: KD) | AFM morphology of aggregates [2] | concentrations at which seeding was significantly reduced, post-transduction treatment [3] | seeding (CFP/YFP inclusions) after post-transduction treatment [3] | pKd [1] | kon ([1]; SPR, R2R3 N279K) | koff ([1]; SPR, R2R3 N279K, read-out: Koff) |
| --- | --- | --- | --- | --- | --- | --- | --- | --- | --- |
| C/C=C(/C=O)[C@@H](CC=O)CC(=O)OCCc1ccc(O)cc1 [OLC, oleocanthal] | 34.60 M⁻¹ s⁻¹ | 6.87e-05 s⁻¹ | 5.70 | only sparse fibrils | ≥ 1.25 µM | significantly reduced seeding at all tested concentrations |  |  |  |
| O=C1c2ccccc2C(=O)c2c(O)c(O)cc(O)c21 [PUR, purpurin] |  |  |  | only sparse fibrils | ≥ 1.25 µM | significantly reduced seeding at all tested concentrations | 5.37 | 70.3 M⁻¹ s⁻¹ | 0.000297 s⁻¹ |
